pIC50: −log10 of the molar value.

The term inhibition denotes the share of the control response that was lost under treatment. In general, pIC50 refers to the negative decadic logarithm of the IC50, by convention in mol/L.

The first test has as its target T1, Endothelin-1 receptor (Sus scrofa) (UniProt Q29010).
T1 sequence (whole entry): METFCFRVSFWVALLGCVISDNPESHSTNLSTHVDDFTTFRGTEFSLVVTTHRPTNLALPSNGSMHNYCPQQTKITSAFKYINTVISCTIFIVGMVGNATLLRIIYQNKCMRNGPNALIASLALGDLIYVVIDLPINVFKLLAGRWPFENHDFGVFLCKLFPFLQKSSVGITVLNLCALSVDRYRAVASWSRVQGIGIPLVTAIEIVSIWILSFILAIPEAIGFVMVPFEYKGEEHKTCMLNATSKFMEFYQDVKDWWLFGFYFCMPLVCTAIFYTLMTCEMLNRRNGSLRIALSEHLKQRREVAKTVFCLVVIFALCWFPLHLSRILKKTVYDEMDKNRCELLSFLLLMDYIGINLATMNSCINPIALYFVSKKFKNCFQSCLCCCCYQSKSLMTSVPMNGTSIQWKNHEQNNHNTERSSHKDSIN
Put plainly: (§1) Inhibition of endothelin (ET-A) binding to porcine heart membranes. Set-up: concentration or dose not given beside the values. The conditions noted are these: Membrane, concentration not given here.
As for `CC[C@H](C)[C@H](NC(=O)[C@H](CCSC)NC(=O)[C@H](CC(=O)O)NC(=O)[C@H](CC(C)C)NC(=O)[C@H](NC(C)=O)C1c2ccccc2CCc2ccccc21)C(=O)N[C@@H](Cc1c[nH]c2ccccc12)C(=O)O`, the inhibition stood at 26%.

`CC[C@H](C)[C@H](NC(=O)[C@H](CCCCN)NC(=O)[C@H](CC(=O)O)NC(=O)[C@H](CC(C)C)NC(=O)[C@H](NC(C)=O)C1c2ccccc2CCc2ccccc21)C(=O)N[C@@H](Cc1c[nH]c2ccccc12)C(=O)O` showed an inhibition of 0%.

As for `CC[C@H](C)[C@H](NC(=O)[C@H](Cc1c[nH]cn1)NC(=O)[C@H](CC(=O)O)NC(=O)[C@H](CC(C)C)NC(=O)[C@H](NC(C)=O)C1c2ccccc2CCc2ccccc21)C(=O)N[C@@H](Cc1c[nH]c2ccccc12)C(=O)O`, the inhibition was determined as 12%.

Another test concerns the target T1, Endothelin-1 receptor (Sus scrofa). The test is described as §1. Also noted: concentration or dose not given beside the values. The conditions noted are these: Membrane, concentration not given here.
`CC[C@H](C)[C@H](NC(=O)CNC(=O)[C@H](CCCCN)NC(=O)[C@H](CC(C)C)NC(=O)[C@H](NC(C)=O)C1c2ccccc2CCc2ccccc21)C(=O)N[C@@H](Cc1c[nH]c2ccccc12)C(=O)O` yielded an inhibition of 16%.

For `CC[C@H](C)[C@H](NC(=O)CNC(=O)[C@H](CCCN=C(N)N)NC(=O)[C@H](CC(C)C)NC(=O)[C@H](NC(C)=O)C1c2ccccc2CCc2ccccc21)C(=O)N[C@@H](Cc1c[nH]c2ccccc12)C(=O)O`, the inhibition was 27%.

`CC[C@H](C)[C@H](NC(=O)CNC(=O)[C@H](C)NC(=O)[C@H](CC(C)C)NC(=O)[C@H](NC(C)=O)C1c2ccccc2CCc2ccccc21)C(=O)N[C@@H](Cc1c[nH]c2ccccc12)C(=O)O` yielded an inhibition of 62%.

`CC[C@H](C)[C@H](NC(=O)CNC(=O)[C@H](CCSC)NC(=O)[C@H](CC(C)C)NC(=O)[C@H](NC(C)=O)C1c2ccccc2CCc2ccccc21)C(=O)N[C@@H](Cc1c[nH]c2ccccc12)C(=O)O` came in with an inhibition of 61%.

For `CC[C@H](C)[C@H](NC(=O)CNC(=O)[C@H](Cc1ccccc1)NC(=O)[C@H](CC(C)C)NC(=O)[C@H](NC(C)=O)C1c2ccccc2CCc2ccccc21)C(=O)N[C@@H](Cc1c[nH]c2ccccc12)C(=O)O`, the inhibition came out at 42%.

In the case of `CC[C@H](C)[C@H](NC(=O)CNC(=O)[C@H](CC(C)C)NC(=O)[C@H](CC(C)C)NC(=O)[C@H](NC(C)=O)C1c2ccccc2CCc2ccccc21)C(=O)N[C@@H](Cc1c[nH]c2ccccc12)C(=O)O`, the inhibition was found to be 34%.

The molecule `CC[C@H](C)[C@H](NC(=O)CNC(=O)[C@H](Cc1c[nH]cn1)NC(=O)[C@H](CC(C)C)NC(=O)[C@H](NC(C)=O)C1c2ccccc2CCc2ccccc21)C(=O)N[C@@H](Cc1c[nH]c2ccccc12)C(=O)O` showed an inhibition of 56%.

The molecule `CC(=O)N[C@@H](C(=O)N[C@@H](CC(C)C)C(=O)N[C@@H](CO)C(=O)NCC(=O)N[C@H](C(=O)N[C@@H](Cc1c[nH]c2ccccc12)C(=O)O)C(C)C)C1c2ccccc2CCc2ccccc21` had an inhibition of 65%.

In turn, `CC[C@H](C)[C@H](NC(=O)CNC(=O)[C@@H]1CCCN1C(=O)[C@H](CC(C)C)NC(=O)[C@H](NC(C)=O)C1c2ccccc2CCc2ccccc21)C(=O)N[C@@H](Cc1c[nH]c2ccccc12)C(=O)O` gave an inhibition of 7%.

`CC[C@@H](C)[C@H](NC(=O)[C@H](CC(C)C)NC(=O)[C@H](NC(C)=O)C1c2ccccc2CCc2ccccc21)C(=O)NCC(=O)N[C@H](C(=O)N[C@@H](Cc1c[nH]c2ccccc12)C(=O)O)[C@@H](C)CC` registered an inhibition of 22%.

For a further test, the target named is T2, Endothelin-1 receptor (Sus scrofa, UniProt Q29010).
T2 sequence (Q29010 whole entry): T1 sequence (whole entry)
Described as §1. Set-up: species or system Membrane.
Settings: not given
Turning to `CC[C@H](C)[C@H](NC(=O)[C@H](CCSC)NC(=O)[C@H](CC(=O)O)NC(=O)[C@H](CC(C)C)NC(=O)[C@H](NC(C)=O)C1c2ccccc2CCc2ccccc21)C(=O)N[C@@H](Cc1c[nH]c2ccccc12)C(=O)O`, the negative-log IC50 (pIC50) was 7.40.

Molecule `CC[C@H](C)[C@H](NC(=O)CNC(=O)[C@H](CO)NC(=O)[C@H](CC(C)C)NC(=O)[C@H](NC(C)=O)C1c2ccccc2CCc2ccccc21)C(=O)N[C@@H](Cc1c[nH]c2ccccc12)C(=O)O` had a negative logarithm of the IC50 (pIC50) of 6.42.

As to `CC[C@H](C)[C@H](NC(=O)CNC(=O)[C@@H](NC(=O)[C@H](CC(C)C)NC(=O)[C@H](NC(C)=O)C1c2ccccc2CCc2ccccc21)[C@@H](C)O)C(=O)N[C@@H](Cc1c[nH]c2ccccc12)C(=O)O`, the pIC50 was 6.46.

Values taken from ChEMBL document CHEMBL1151010, “A case study of combinatorial libraries: Endothelin receptor antagonist hexapeptides” (Bioorg Med Chem Lett, 1995).
